Experimental data taken from a melting point compilation (Tetko et al.; mined from patent text by program, amines drawn as free bases though some values may be those of a salt).

Structure (SMILES) | melting point
CCCc1ccc(-c2ccc(C(=O)N3Cc4cccn4Cc4ccccc43)cc2)cc1 | 118 to 120 °C
O=C(NCC1CCOCC1)Nc1ccc(C(F)(F)F)cc1 | 148 to 149 °C
COC(=O)C1c2ccccc2C2C(=O)NCCN21 (configuration not stated) | 165 to 167 °C
N#Cc1ccc(OCC(O)CN2CCSCC2)cc1 (configuration not stated) | 94 to 95 °C
CN(c1cccc2cc(C3=NCC4(CCN(Cc5nccn5C)CC4)S3)[nH]c12)S(=O)(=O)c1cccs1 | 103 °C
O=C1COC(Nc2ccc(C(O)(C(F)(F)F)C(F)(F)F)cc2)=N1 | 272 to 274 °C
N#Cc1nn(-c2c(Cl)cc(C(F)(F)F)cc2Cl)cc1OC(F)F | 85 to 87 °C
COC(=O)c1c(C(C)C)nc2c(c1-c1ccc(F)cc1)CCCN2 | 168 to 170 °C
CCN(CC)c1nc(N)nc(-c2cc(Cl)ccc2Cl)n1 | 137 to 138 °C
Nc1ncc(-c2ccc3c(c2)CCC(N2CCOCC2)CC3)c(N)n1 (configuration not stated) | 118 °C
COc1ccc(Cc2nc3n(-c4c(Cl)cc(Cl)cc4Cl)[nH]c(C(C)C)c-3c(=O)n2)cc1 | 183 to 185 °C
CCNC(=O)C[C@@H]1N=C(c2ccc(Cl)cc2)c2cc(OC)ccc2-n2c(C)nnc21 | > 140 °C
Cc1cc2c(c3ccc(=O)[nH]c13)OC(CNC=O)C2 (single isomer, unassigned; (+)) | 282 to 284 °C
CC(=O)Oc1c(C)cc(OCC(=O)c2ccc(C(C)C)cc2)c2ccccc12 | 105 to 106 °C
CCN1c2ncccc2C(=O)N(C)c2ccc(-c3cnn(C(C)=O)c3)nc21 | 186 to 188 °C
Cc1ccccc1C(=O)Nc1ccc(C(=O)N2CCCC(n3cccc3)c3ccccc32)cc1 (configuration not stated) | 208 to 210 °C
CCOCc1nc2c(N)nc3cccnc3c2n1CC(C)(C)O | 157 to 159 °C
CC(=O)SCCCCCCCCCCCOCCOCCOCCOc1ccc(OCc2ccccc2)cc1 | 55 to 57 °C
OCc1cc(CCCCCCCOc2ccc(C3=NCCO3)cc2)on1 | 122 to 124 °C
COc1cc2ncc(C#N)c(Nc3cccnc3)c2cc1OC | 231 to 233 °C
CCOC(=O)c1c(SC)nc(-c2ccc(SC)cc2)n(-c2ccc(F)cc2)c1=O | 151 to 155 °C
C[C@@]1(F)[C@H](OC(=O)c2ccccc2)[C@@H](COC(=O)c2ccccc2)O[C@@H]1Br | 59 to 61 °C
CCCc1cc(Cl)c2oc(C(=O)c3ccc(OC)cc3)c(C)c2c1OC(=O)c1ccc(OC)cc1 | 103 to 105 °C
CC(C)=C(C(=O)O)c1ccc(F)cc1 | 124 to 126 °C
COC(=O)CCc1ccc(C(=O)CCl)cc1 | 90 °C

Structure (SMILES) | melting point
CCOS(=O)(=O)c1nc2nc(C)cc(Cl)n2n1 | 166 to 169 °C
COc1cc2c(cc1OC)C(C=Cc1ccc(Cl)c(Cl)c1)=NNC(C)C2 (configuration not stated) | 132 to 133 °C
COC(=O)[C@H](NC(=O)OC(C)(C)C)c1ccc(O)cc1 | 140 to 142 °C
CCOC(=O)c1ccc(N2CCC(NC(=O)OC(C)(C)C)CC2)nc1 | 140 to 142 °C
CCCc1c(C(=O)NCc2ccc(-c3ccc(O)c(Br)c3)cc2)cnn1-c1ccccc1 | 184 to 186 °C
CC(C)(C)c1cc(Cn2nc(CCCCCCCCc3nn(Cc4cc(C(C)(C)C)c(O)c(C(C)(C)C)c4)c(=O)o3)oc2=O)cc(C(C)(C)C)c1O | 142 °C
Nc1c(F)cc(Cl)c2nc(Cl)sc12 | 173 °C
Cc1cc(COC2CCCCO2)nc(N)n1 (configuration not stated) | 109 to 110 °C
CC(C)(C)c1cc(C(=O)c2cccs2)cc(CN(CCO)CCO)c1O | 108 to 110 °C
COc1cc(C(=O)N2CCC(CCN3CCC(O)(c4nc5ccccc5n4Cc4ccc(F)cc4)CC3)(c3ccc(Cl)c(Cl)c3)C2)cc(OC)c1OC (configuration not stated) | 130 to 150 °C
COc1ccc(F)c(CC2CCN([C@H]3CC[C@H](c4ccc5c(c4)OCO5)CC3)CC2)c1 | 89 to 91 °C
CCOC(=O)c1c(C)cc2c(c1C)c(=O)n(-c1ccccc1Cl)c(=O)n2CC(=O)NCCN(CC)CC | 193 to 194 °C
COCC(=O)Nc1cccc2c1C(=O)N(C1CCC(=O)NC1=O)C2=O (configuration not stated) | 246 to 248 °C
COC(OCCc1nc(C(C)C)c(Sc2cc(Cl)cc(Cl)c2)n1C)(c1ccccc1)c1ccccc1 | 107 to 108 °C
O=c1[nH]c2cc(F)c(NCC3=CCCOC3)cc2o1 | 175 to 176 °C
CC(=O)c1noc2cc(OCc3cccc(C(F)(F)F)c3)ccc12 | 130 to 132 °C
COc1ccc(C(=O)N[C@@H](CNC(=O)c2ccc(C)cc2)c2ccccc2)cc1 | 230 to 238 °C
C[C@@H](NC(=O)[C@H](Cc1ccc(OC(C)(C)C)cc1)N(C)C(=O)OC(C)(C)C)C(=O)O | 109 to 110 °C
CCCCOc1ccc2cc(Br)ccc2c1 | 48 to 50 °C
COc1cc(N2CCN(C)CC2)c2oc(C(=O)Nc3ccc(N4CCN(C(=O)CCO)CC4)cc3)cc(=O)c2c1 | 195 to 197 °C
CCOc1nc(OCC)c2cscc2n1 | 84 to 86 °C
O=C(NC(=O)c1ccco1)C(=O)Oc1ccc([N+](=O)[O-])cc1 | 115 °C
O=C1CSC(=S)N1c1ccc(Cl)cc1 | 124 to 126 °C
COC(=O)c1ccc(-c2nc3cc(C(=O)O)ccc3o2)cc1 | 275 to 284 °C
COc1c(Cl)ccc(C(=O)O)c1F | 183 to 184 °C

Structure (SMILES) | melting point
Cc1c(Br)c(=O)n(C2CCCC2)c2nc(Nc3ccc(N4CCN(C(=O)OC(C)(C)C)CC4)cn3)ncc12 | > 250 °C
Cc1nn(-c2ccccc2)c(C)c1CC#N | 69 to 70 °C
C=CCc1cccc2c(=O)cc(-c3ccc(F)cc3)oc12 | 98 to 100 °C
O=C(Nc1ccc([N+](=O)[O-])cc1Cl)OCCCl | 128 to 130 °C
CC(=O)Nc1ccc(N2C(=O)C3CCC2n2c(=O)n(-c4ccccc4)c(=O)n23)cc1 (configuration not stated) | 144 to 145 °C
O=C(O)CCSC(=S)NCc1ccc(Cl)cc1 | 104 to 105 °C
Cc1cc2nc(C)c(S(=O)Cc3ccccc3N(C)C)nc2cc1C (configuration not stated) | 83 to 88 °C
COc1ccc(OC)c2c1C[C@](O)(C(C)=O)CC21SCCS1 | 175 to 178 °C
CN(C)C(=NC(=O)C(O)(C(N)=O)c1ccc(Cl)c(Cl)c1)N(C)C (configuration not stated) | 98 to 100 °C
COC(=O)c1[nH]c2ccc(C)cc2c1Sc1ccc(Cl)cc1 | 230 to 233 °C
CC(C)n1nnc(NC(=O)C(c2ccccc2)c2ccccc2)n1 | 175 to 177 °C
C1=CCC(Cc2ccc(-c3ccccc3)cc2)C1 | 47 to 48 °C
CS(=O)c1c(C(=N)NN)nn(-c2c(Cl)cc(C(F)(F)F)cc2Cl)c1N (configuration not stated) | 210 °C
CCc1noc(-c2ncn(-c3cccc(OCc4ccccc4)c3)c2COC)n1 | 63 to 64 °C
COC(=O)C1=C(C)NC(C)=C(C(=O)OCCCCl)C1c1cccc([N+](=O)[O-])c1 (configuration not stated) | 125 to 130 °C
Cc1ccc(C2COc3c(ccc(O)c3O)C2)cc1 (configuration not stated) | 164 °C
CS(=O)(=O)Nc1ccc(C(N)=O)cc1Sc1ccc(F)cc1F | 176 to 178 °C
COc1ccc(-c2cc(=O)c3cc(OCCCCCN4CCC(O)CC4)ccc3o2)cc1OC | 154 to 155 °C
CC(=O)Nc1ccc(S(=O)(=O)Nc2nnc(C(C)(C)C)s2)cc1 | 137 to 138 °C
OC(CN1CCN(C(c2ccccc2)c2ccccc2)CC1)c1ccc(OCc2ccccc2)cc1OCc1ccccc1 (configuration not stated) | 151 °C
CCCc1c(S(=O)CCCOc2ccc(C(C)=O)c(OCCCC(=O)OCC)c2CCC)ccc(C(C)=O)c1O (configuration not stated) | 74 to 76 °C
CN(C)c1cccc2c1c(=O)n(C)c1c(-c3noc(C4CC4)n3)ncn21 | 170 to 171 °C
CCOC(=O)N1CCN(c2nn(-c3ccc(F)cc3)c3ccccc23)CC1 | 109 to 111 °C
Cn1c(Cc2cccc(C(F)(F)F)c2)nc2c(-c3cccc(C(=O)O)c3)cccc21 | 175 to 177 °C
Cc1cc(OS(=O)(=O)c2ccccc2)cc2c(C3CCN(C)CC3)c[nH]c12 | 118 °C

Structure (SMILES) | melting point
COc1cc2ccc(CC(=S)N3CCOCC3)cc2c(C)c1OC | 100 to 103 °C
NC(=O)c1ccc(-c2cccc3cc(Cc4cccc(C(F)(F)F)c4)sc23)nc1 | 222 to 223 °C
ClCc1ccc(Cl)nc1Cl | 115 to 130 °C
COc1ccc2c(c1)C(=O)c1c-2c(N2CCNCC2)nc2ccccc12 | 150 to 151 °C
N#CSCC(I)=C(I)CSC#N | 190 °C
Cc1sc2nc3ccc(C#N)cn3c(=O)c2c1C | 306 to 307 °C
COc1ccnc(CCc2nc3cc(-c4ccc(S(=O)(=O)NCc5ccccc5)cc4)cnc3[nH]2)c1 | 211 to 212 °C
CCCCCCN1Cc2cc3ccccc3n2Cc2ccccc21 | 45 °C
Cc1ccc(NC(=O)c2ccc3ncccc3c2)cc1NC(=O)c1cccc(OCCN2CCOCC2)c1 | 216 to 217 °C
CCCc1cc(Cl)c(OC(=S)N(C)C)c(C(C)=O)c1OC(C)=O | 86 to 88 °C
COc1cc([N+](=O)[O-])c(NCCO)c([N+](=O)[O-])c1 | 104 °C
O=C1OCCN1c1ccc(F)c([N+](=O)[O-])c1 | 135 °C
CCOC(=O)c1noc([C@@H](Cc2ccc3ccccc3c2)N(C)C(=O)OC(C)(C)C)n1 | 99 to 102 °C
CCOc1ccc2c(c1)C(C)(c1cccc(O)c1)C(=O)N2S(=O)(=O)c1ccc(C(=O)NC(C)(C)C)cc1 (configuration not stated) | 196 °C
CCOC(=O)c1cc2c(C)cccc2n1CCCC(=O)O | 132 to 133 °C
O=Cc1c2ccccc2c(Cl)c2cc3ccccc3cc12 | 212 to 214 °C
O=C(c1ccccc1)N1CCc2cc(S(=O)(=O)N3CCN(c4cccc(Cl)c4)CC3)ccc21 | 200 to 201 °C
COc1ccc(C(=O)Nc2ccc(C)c(Cl)c2)cc1NC(=S)Nc1cc(Cl)cc(Cl)c1 | 195 to 196 °C
CCOc1ccc2c(c1)n(C1CCOCC1)c(=O)n2S(=O)(=O)c1ccc(C(=O)OC)cc1OC | 165 °C
C=CCN(C(C)C)C(C)CC1=C(c2ccc(OC)cc2)CCCNC1=O (configuration not stated) | 95 to 97 °C
CCOC(=O)c1c(C(=O)OCC)c(-c2ccc(OC)c(OC)c2)c2c(OC)c(OC)c(OC)cc2c1O | 138 to 140 °C
CCOC(=O)Nc1ccc(N(CC)CC)cc1 | 31 to 33 °C
